Measurements as given in US12528773B2, “Non-lysosomal glucosylceramidase inhibitors and uses thereof” (ALECTOS THERAPEUTICS INC., priority 2020, dated 2026).
Read-outs that look alike come from different tables or passages of the source.

Assays:
[1] = test system: rat intestinal alpha-glucosidases; test: Inhibition of rat intestinal alpha-glucosidases (rat intestinal lysate, glucose detection); assay type: biochemical; details: compound concentration 25 μM, sucrose as substrate
Experimental: Assay for Determination of Inhibition of Rat Intestinal Alpha-Glucosidases
Various concentrations of test compounds were prepared in DMSO and then diluted into buffer consisting of 100 mM citric acid, 200 mM disodium phosphate, pH 6.0. Rat intestinal acetone powder (Sigma) was dissolved to 12.5 mg/mL in assay buffer and sonicated in an ice bath, centrifuged, and the supernatant was collected, aliquoted and stored at −20° C. until use. On the day of the assay, the rat intestinal lysate was diluted to 6.25 mg/mL (sucrose reactions) and 2.1 mg/ml (maltose reactions) in assay buffer. The final reaction solutions for sucrose contained 2.1 mg/mL rat intestinal lysate, 40 mM sucrose, 50 or 25 μM of test compound, and 3.3% DMSO. The final reaction solution for maltose contained 0.69 mg/mL rat intestinal lysate, 10 mM maltose, 50 or 25 μM of test compound, and 3.3% DMSO. The reaction was initiated by the addition of substrate (sucrose or maltose) and allowed to proceed at 37° C. for 20 min to assess rat intestinal alpha-glycosidase activities. The reaction was stopped by addition of 20 μL of 2 M Tris-HCl, pH 7.0. The glucose produced during the reaction was detected using a commercial Amplex Red glucose detection kit from Thermo Fisher. For a full plate, the Amplex Red detection mixture was prepared by mixing 35 μL glucose oxidase, 35 μL horseradish peroxidase and 35 μL Amplex Red into 3395 μL 1× Amplex Red detection buffer. A total of 30 μL of detection mixture was added to each well. Fluorescence was measured in kinetic mode on a Biotek Synergy H4 plate reader at a wavelength of 573 nm for excitation and 610 nm for emission for 15 min and quantified from the data at 10 min. Incubations without added rat intestinal lysate were used to correct for the background amount of glucose present in the samples. Incubations without added test compound were used to define maximal enzyme activity. Percent inhibition of rat intestinal alpha-glucosidases was determined by dividing the amount of glucose detected in the presence of test compound by the amount of glucose detected in the maximal enzyme activity wells. All conditions were analyzed in triplicate. […] The final reaction solutions were the same as described above for the Amplex Red Detection kit. After a 20 min reaction time at 37° C., 100 μL of hexokinase glucose reagent was added to all test wells except for the no enzyme added control wells and no test compound added wells. The plate was incubated for a further 15 min at room temperature and the absorbance was read at 340 nm on a Biotek Synergy H4 plate reader. The percent inhibition of rat intestinal alpha-glucosidases was determined in a similar manner as described above.

GBA2 = GBA2 (Homo sapiens (Human), UniProt Q9HCG7); test: Inhibition of GBA2 in cell lysate (4-methylumbelliferone glucopyranoside substrate); assay type: biochemical;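 note: homogenate of stably transfected HEK293T cells pre-treated with a GCase inhibitor, test compound preincubated 5 min at 37 °C, substrate reaction 20 min at 37 °C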
[2] = HEK293T-overexpressing GBA2 cellular homogenate, pH 5.5, read-out: GBA2 IC50

Sequence of GBA2 (Q9HCG7 whole entry): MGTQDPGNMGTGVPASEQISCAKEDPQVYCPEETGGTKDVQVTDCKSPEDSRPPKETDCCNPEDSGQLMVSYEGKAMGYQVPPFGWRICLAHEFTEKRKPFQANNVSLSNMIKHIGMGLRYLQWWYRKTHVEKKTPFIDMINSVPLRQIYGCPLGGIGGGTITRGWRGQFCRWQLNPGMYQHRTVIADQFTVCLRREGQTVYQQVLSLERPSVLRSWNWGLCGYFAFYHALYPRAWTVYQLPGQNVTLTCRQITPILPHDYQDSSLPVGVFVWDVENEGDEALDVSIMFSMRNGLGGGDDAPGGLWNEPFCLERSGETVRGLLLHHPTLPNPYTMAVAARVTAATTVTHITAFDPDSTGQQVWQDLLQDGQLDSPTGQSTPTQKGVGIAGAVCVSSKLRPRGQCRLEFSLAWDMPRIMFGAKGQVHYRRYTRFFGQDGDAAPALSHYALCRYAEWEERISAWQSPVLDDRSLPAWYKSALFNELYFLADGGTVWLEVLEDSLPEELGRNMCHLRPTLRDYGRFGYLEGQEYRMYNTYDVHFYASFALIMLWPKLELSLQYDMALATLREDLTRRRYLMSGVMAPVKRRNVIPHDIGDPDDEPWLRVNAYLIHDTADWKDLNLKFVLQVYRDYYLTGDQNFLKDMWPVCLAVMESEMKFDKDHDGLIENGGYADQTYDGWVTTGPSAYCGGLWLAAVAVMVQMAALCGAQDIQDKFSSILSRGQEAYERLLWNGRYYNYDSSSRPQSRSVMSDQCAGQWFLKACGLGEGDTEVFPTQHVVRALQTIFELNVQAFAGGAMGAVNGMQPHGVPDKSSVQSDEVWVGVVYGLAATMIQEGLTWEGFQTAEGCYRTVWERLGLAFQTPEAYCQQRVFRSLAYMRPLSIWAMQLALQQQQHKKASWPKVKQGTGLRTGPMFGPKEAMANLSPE

| SMILES | rat α-glu. (% inhib.) [1] | IC50 (GBA2; [2]) | IC50 (GBA2) |
| --- | --- | --- | --- |
| OC[C@@H]1[C@@H](O)[C@H](O)[C@@H](O)CN1CCCCCOCC12CC3CC(CC(C3)C1)C2 [AMP-DNM, (2R,3R,4R,5S)-1-(5-((3R,5R,7R)-adamantan-1-ylmethoxy)pentyl)-2-(hydroxymethyl)piperidine-3,4,5-triol, reference compound] | 85% | – | – |
| O[C@H]1[C@H](O)CN(CCC2CCCCC2)C[C@@H]1O [Example 4, (3S,4r,5R)-1-(2-cyclohexylethyl)piperidine-3,4,5-triol] | 14% | < 100 nM | – |
| O[C@H]1[C@H](O)CN(CCCC2CCCCC2)C[C@@H]1O [Example 5, (3S,4r,5R)-1-(3-cyclohexylpropyl)piperidine-3,4,5-triol] | 10% | < 100 nM | – |
| O[C@H]1[C@H](O)CN(CCc2cccc(Cl)c2F)C[C@@H]1O [Example 6, (3S,4r,5R)-1-(3-chloro-2-fluorophenethyl)piperidine-3,4,5-triol] | 3% | < 100 nM | – |
| O[C@H]1[C@H](O)CN(CCc2ccc(Cl)c(Cl)c2)C[C@@H]1O [Example 8, (3S,4r,5R)-1-(3,4-dichlorophenethyl)piperidine-3,4,5-triol] | 0% | < 100 nM | – |
| CC(Cc1cccc(Cl)c1F)N1C[C@@H](O)[C@H](O)[C@@H](O)C1 (stereo partly drawn) [Example 16, (3S,4r,5R)-1-(1-(3-chloro-2-fluorophenyl)propan-2-yl)piperidine-3,4,5-triol] | 7% | – | 100 to 1000 nM |
| CC(CCc1cccc(Cl)c1F)N1C[C@@H](O)[C@H](O)[C@@H](O)C1 (stereo partly drawn) [Example 17, (3S,4r,5R)-1-(4-(3-chloro-2-fluorophenyl)butan-2-yl)piperidine-3,4,5-triol] | 0% | 100 to 1000 nM | – |
| O[C@H]1[C@H](O)CN(C[C@H]2CCN(c3ncccc3C(F)(F)F)C2)C[C@@H]1O [Example 19, (3S,4R,5R)-1-(((R)-1-(3-(trifluoromethyl)pyridin-2-yl)pyrrolidin-3-yl)methyl)piperidine-3,4,5-triol] | 6% | < 100 nM | – |
| O[C@H]1[C@H](O)CN(C[C@H]2CCN(c3nc4ccccc4o3)C2)C[C@@H]1O [Example 22, (3S,4R,5R)-1-(((R)-1-(benzo[d]oxazol-2-yl)pyrrolidin-3-yl)methyl)piperidine-3,4,5-triol] | 4% | < 100 nM | – |
| O[C@H]1[C@H](O)CN(C[C@H]2CCN(c3nc4ccccc4s3)C2)C[C@@H]1O [Example 23, (3S,4R,5R)-1-(((R)-1-(benzo[d]thiazol-2-yl)pyrrolidin-3-yl)methyl)piperidine-3,4,5-triol] | 5% | < 100 nM | – |
| O[C@H]1[C@H](O)CN(C[C@@H]2CCN(c3ncccc3C(F)(F)F)C2)C[C@@H]1O [Example 24, (3S,4S,5R)-1-(((S)-1-(3-(trifluoromethyl)pyridin-2-yl)pyrrolidin-3-yl)methyl)piperidine-3,4,5-triol] | 3% | < 100 nM | – |
| O[C@H]1[C@H](O)CN(C[C@@H]2CCN(c3cnccc3C(F)(F)F)C2)C[C@@H]1O [Example 25, (3S,4S,5R)-1-(((S)-1-(4-(trifluoromethyl)pyridin-3-yl)pyrrolidin-3-yl)methyl)piperidine-3,4,5-triol] | 1% | < 100 nM | – |
| O[C@H]1[C@H](O)CN(C[C@@H]2CCN(c3cncnc3C(F)(F)F)C2)C[C@@H]1O [Example 26, (3S,4S,5R)-1-(((S)-1-(4-(trifluoromethyl)pyrimidin-5-yl)pyrrolidin-3-yl)methyl)piperidine-3,4,5-triol] | 0% | < 100 nM | – |
| O[C@H]1[C@H](O)CN(C[C@@H]2CCN(c3nc(C(F)(F)F)cs3)C2)C[C@@H]1O [Example 27, (3S,4S,5R)-1-(((S)-1-(4-(trifluoromethyl)thiazol-2-yl)pyrrolidin-3-yl)methyl)piperidine-3,4,5-triol] | 2% | < 100 nM | – |
| O[C@H]1[C@H](O)CN(C[C@@H]2CCN(c3cccc4scnc34)C2)C[C@@H]1O [Example 28, (3S,4S,5R)-1-(((S)-1-(benzo[d]thiazol-4-yl)pyrrolidin-3-yl)methyl)piperidine-3,4,5-triol] | 11% | < 100 nM | – |
| CC(C)c1cnc(N2CCC[C@H](CN3C[C@@H](O)[C@H](O)[C@@H](O)C3)C2)s1 [Example 32, (3S,4R,5R)-1-(((R)-1-(5-isopropylthiazol-2-yl)piperidin-3-yl)methyl)piperidine-3,4,5-triol] | 2% | < 100 nM | – |
| O[C@H]1[C@H](O)CN(C[C@H]2CCCN(c3nc(C(F)(F)F)cs3)C2)C[C@@H]1O [Example 33, (3S,4R,5R)-1-(((R)-1-(4-(trifluoromethyl)thiazol-2-yl)piperidin-3-yl)methyl)piperidine-3,4,5-triol] | – | < 100 nM | – |
| O[C@H]1[C@H](O)CN(C[C@@H]2CCCN(c3cccc(C(F)(F)F)n3)C2)C[C@@H]1O [Example 37, (3S,4S,5R)-1-(((S)-1-(6-(trifluoromethyl)pyridin-2-yl)piperidin-3-yl)methyl)piperidine-3,4,5-triol] | 0% | 100 to 1000 nM | – |
| O[C@H]1[C@H](O)CN(C[C@@H]2CCCN(c3nc(C(F)(F)F)cs3)C2)C[C@@H]1O [Example 39, (3S,4S,5R)-1-(((S)-1-(4-(trifluoromethyl)thiazol-2-yl)piperidin-3-yl)methyl)piperidine-3,4,5-triol] | 0% | 100 to 1000 nM | – |
| O[C@H]1[C@H](O)CN(CC2Cc3ccccc3C2)C[C@@H]1O [Example 62, (3S,4r,5R)-1-((2,3-dihydro-1H-inden-2-yl)methyl)piperidine-3,4,5-triol] | 12% | < 100 nM | – |
| O[C@H]1[C@H](O)CN(CC2CCN(c3ccccc3)CC2)C[C@@H]1O [Example 106, (3S,4r,5R)-1-((1-phenylpiperidin-4-yl)methyl)piperidine-3,4,5-triol] | 9% | < 100 nM | – |
| O[C@H]1[C@H](O)CN(C[C@H]2CCN(c3cccc(C(F)(F)F)n3)C2)C[C@@H]1O [Example 142, (3S,4R,5R)-1-(((R)-1-(6-(trifluoromethyl)pyridin-2-yl)pyrrolidin-3-yl)methyl)piperidine-3,4,5-triol] | 0% | < 100 nM | – |
| O[C@H]1[C@H](O)CN(C[C@H]2CCN(c3cncc(C(F)(F)F)c3)C2)C[C@@H]1O [Example 146, (3S,4R,5R)-1-(((R)-1-(5-(trifluoromethyl)pyridin-3-yl)pyrrolidin-3-yl)methyl)piperidine-3,4,5-triol] | 0% | < 100 nM | – |
| O[C@H]1[C@H](O)CN(C[C@H]2CCN(c3ccc(C(F)(F)F)nc3)C2)C[C@@H]1O [Example 149, (3S,4R,5R)-1-(((R)-1-(6-(trifluoromethyl)pyridin-3-yl)pyrrolidin-3-yl)methyl)piperidine-3,4,5-triol] | 0% | < 100 nM | – |
| O[C@H]1[C@H](O)CN(Cc2ccc(N3CCCC3)cc2)C[C@@H]1O [Example 203, (3S,4r,5R)-1-(4-(pyrrolidin-1-yl)benzyl)piperidine-3,4,5-triol] | – | 100 to 1000 nM | – |
| CCCCN1C[C@H](O)[C@@H](O)[C@H](O)[C@H]1CO [NB-DNJ, (2R,3R,4R,5S)-1-butyl-2-(hydroxymethyl)piperidine-3,4,5-triol, reference compound] | 98% | – | – |
